The text below walks through data of patent publication US20210024542A1 (Torcept Therapeutics, Inc., priority 2018, published 2021).

For one experiment, the system named is NCIH446. The experiment in a line: OncoPanel cell proliferation assay, NCIH446. Type of experiment: cell-based, human. The conditions noted are these: for Cell Count Activity Area: NCIH446, scale 0-10. The method, then: (§1) Cells were grown in RPMI 1640, 10% FBS, 2 mM L-alanyl-L-glutamine, 1 mM Na pyruvate, or a special medium. Cells were seeded into 384-well plates and incubated in a humidified atmosphere of 5% CO2 at 37° C. Compounds were added the day following cell seeding. At the same time, a time zero untreated cell plate was generated. After a 3-day incubation period, cells were fixed and stained to allow fluorescence imaging of nuclei. Compounds (1 mM stock solutions) were serially diluted in half-log steps from the highest test concentration ([…]), and assayed over 10 concentrations with a maximum assay concentration of 0.1% DMSO. Automated fluorescence microscopy was carried out using a Molecular Devices ImageXpress Micro XL high-content imager, and images were collected with a 4× objective. 16-bit TIFF images were acquired and analyzed with MetaXpress 5.1.0.41 software.
(§2) Cell proliferation was measured by the fluorescence intensity of an incorporated nuclear dye. The output is referred to as the relative cell count, where the measured nuclear intensity is transformed to percent of control (POC) using the following formula: […]
(§3) Cellular response parameters were calculated using nonlinear regression to a sigmoidal single-site dose response model:
(§4) Where y is a response measured at concentration x, A and B are the lower and upper limits of the response, C is the concentration at the response midpoint (EC50), and D is the Hill Slope (Ref. 1).
(§5) EC50 is the test compound concentration at the curve inflection point or half the effective response (parameter C of the fitted curve solution). GI50 is the concentration needed to reduce the observed growth by half (midway between the curve maximum and the time zero value). “Cell Count Activity Area” is an estimate of the integrated area above the curve (Barretina, et al. The Cancer Cell Line Encyclopedia enables predictive modelling of anticancer drug sensitivity. Nature 483: 603-607). […] In rare instances, values <0 or >10 may be observed. […] Curve-fitting, calculations, and report generation was performed using a custom data reduction engine and MathIQ based software (AIM).

A further experiment concerns Hs 729. The experiment in a line: OncoPanel cell proliferation assay, Hs 729. Type of experiment: cell-based, human. The settings on record: for Cell Count Activity Area: Hs 729, scale 0-10. On the procedure: as §1, §2, §3, §4, §5
Another experiment has as its system A388. The experiment in a line: OncoPanel cell proliferation assay, A388. It is filed as cell-based, human. The method, then:
as §1, with “Cells” for “Cells were grown in RPMI 1640, 10% FBS, 2 mM L-alanyl-L-glutamine, 1 mM Na pyruvate, or a special medium. Cells”
as §2, §3, §4
GI50 is the concentration needed to reduce the observed growth by half (midway between the curve maximum and the time zero value). […] In rare instances, values <0 or >10 may be observed. […] Curve-fitting, calculations, and report generation was performed using a custom data reduction engine and MathIQ based software (AIM).

The test system of the next experiment is CaOV3. The experiment is described as follows: OncoPanel cell proliferation assay, CaOV3. Type of experiment: cell-based, human. The conditions noted are these: for Cell Count Activity Area: CaOV3, scale 0-10. On the procedure:
as §1, §2, §3, §4, §5

For the next experiment, the system named is MES-SA. The experiment is described as follows: OncoPanel cell proliferation assay, MES-SA. Type of experiment: cell-based, human. The conditions noted are these: for Cell Count Activity Area: scale 0-10. On the procedure:
as §1, §2, §3, §4, §5

The next experiment concerns NCI-H510A. The experiment in a line: OncoPanel cell proliferation assay, NCI-H510A. Type of experiment: cell-based, human. The settings on record: for Cell Count Activity Area: scale 0-10. On the procedure:
as §1, §2, §3, §4, §5

The subject of the next experiment is RL95-2. The experiment in a line: OncoPanel cell proliferation assay, RL95-2. The settings on record: for Cell Count Activity Area: RL95-2, scale 0-10. Type of experiment: cell-based, human. The method, then: as §1, §2, §3, §4, §5
In the next experiment the test system is ST486. The experiment in a line: OncoPanel cell proliferation assay, ST486. It is filed as cell-based, human. The settings on record: for Cell Count Activity Area: ST486, scale 0-10. The method, then:
as §1, §2, §3, §4, §5

Another experiment concerns T24. The experiment in a line: OncoPanel cell proliferation assay, T24. Type of experiment: cell-based, human. The conditions noted are these: for Cell Count Activity Area: T24, scale 0-10. The method, then:
as §1, §2, §3, §4, §5

In another experiment the test system is RKOE6. The experiment is described as follows: OncoPanel cell proliferation assay, RKOE6. The settings on record: RKOE6, scale 0-10.
Another experiment has as its system CAMA-1. The experiment is described as follows: OncoPanel cell proliferation assay, CAMA-1. The settings on record: for Cell Count Activity Area: CAMA-1, scale 0-10.
Another experiment deals with CHP-212. The experiment in a line: OncoPanel cell proliferation assay, CHP-212. The conditions noted are these: for Cell Count Activity Area: CHP-212, scale 0-10.
[1] abbreviates: Homo sapiens, 72 h, 3-day incubation, read-out: Cell Count GI50.

The structures appear in SMILES notation.

Protocol for CAMA-1: (§6) Cells were seeded into 384-well plates and incubated in a humidified atmosphere of 5% CO2 at 37° C. Compounds were added the day following cell seeding. At the same time, a time zero untreated cell plate was generated. After a 3-day incubation period, cells were fixed and stained to allow fluorescence imaging of nuclei. Compounds (1 mM stock solutions) were serially diluted in half-log steps from the highest test concentration (1 micromol), and assayed over 10 concentrations with a maximum assay concentration of 0.1% DMSO. Automated fluorescence microscopy was carried out using a Molecular Devices ImageXpress Micro XL high-content imager, and images were collected with a 4× objective. 16-bit TIFF images were acquired and analyzed with MetaXpress 5.1.0.41 software.
Protocol for CHP-212: as §6
Protocol for RKOE6: as §6

One may read the EC50 as the concentration giving half of the maximal effect. A word on the IC50: it is the concentration that gives 50% inhibition. A word on the GI50: it is the concentration that inhibits growth by half. On to `CO[C@H]1C[C@@H]2CC[C@@H](C)[C@@](O)(O2)C(=O)C(=O)N2CCCC[C@H]2C(=O)O[C@H]([C@H](C)C[C@@H]2CC[C@@H](O)[C@H](OC)C2)CC(=O)[C@H](C)/C=C(\C)[C@@H](O)[C@@H](OC)C(=O)[C@H](C)C[C@H](C)/C=C/C=C/C=C/1C` [Rapamycin, reference compound], for which the 50% effective concentration (EC50) in the experiment on NCIH446 (Homo sapiens, NCI-H446, 72 h, NCIH446, 3-day incubation, read-out: Cell Count EC50) is above 1000 nM; in the experiment on Hs 729 (Homo sapiens, 72 h, Hs 729, 3-day incubation, read-out: Cell Count EC50) it was above 1000 nM; in the experiment with A388 (Homo sapiens, 72 h, A388, 3-day incubation, read-out: Cell Count EC50), above 1000 nM; with CaOV3 (Homo sapiens, Caov-3, 72 h, CaOV3, 3-day incubation, read-out: Cell Count EC50) it was above 1000 nM; with NCI-H510A (Homo sapiens, 72 h, 3-day incubation, read-out: Cell Count EC50), above 1000 nM. For the same compound, the IC50 is above 1000 nM with NCIH446 (Homo sapiens, NCI-H446, 72 h, NCIH446, 3-day incubation, read-out: Cell Count IC50); above 1000 nM in the experiment on Hs 729 (Homo sapiens, 72 h, Hs 729, 3-day incubation, read-out: Cell Count IC50); above 1000 nM with A388 (Homo sapiens, 72 h, A388, 3-day incubation, read-out: Cell Count IC50); above 1000 nM with CaOV3 (Homo sapiens, Caov-3, 72 h, CaOV3, 3-day incubation, read-out: Cell Count IC50); above 1000 nM in the experiment with NCI-H510A (Homo sapiens, 72 h, 3-day incubation, read-out: Cell Count IC50); above 1000 nM in the experiment with RL95-2 (Homo sapiens, 72 h, RL95-2, 3-day incubation, read-out: Cell Count IC50). Also, the IC50 was above 1000 nM with ST486 (Homo sapiens, 72 h, ST486, 3-day incubation, read-out: Cell Count IC50); 2.1 nM in the experiment with T24 (Homo sapiens, T-24, 72 h, T24, 3-day incubation, read-out: Cell Count IC50); above 1000 nM in the experiment on CHP-212 (Homo sapiens, CHP-212, 72 h, read-out: Cell Count IC50). The “Cell Count Activity Area” value in the experiment with NCIH446 is 1.69; with Hs 729, 0.55; in the experiment on CaOV3 it was 2.40; with MES-SA, 5.39; with NCI-H510A it was 1.63; in the experiment on RL95-2, 4.24. The “Cell Count Activity Area” value with ST486 stood at 3.99; with T24 it was 4.39; in the experiment on RKOE6, 4.61; in the experiment on CAMA-1 it was 4.07; in the experiment on CHP-212, 4.13. Further, the GI50 is above 1000 nM in the experiment on Hs 729 (Homo sapiens, 72 h, Hs 729, 3-day incubation, read-out: Cell Count GI50); above 1000 nM in the experiment on A388 (Homo sapiens, 72 h, A388, 3-day incubation, read-out: Cell Count GI50); above 1000 nM in the experiment with CaOV3 (Homo sapiens, Caov-3, 72 h, CaOV3, 3-day incubation, read-out: Cell Count GI50); above 1000 nM in the experiment on NCI-H510A (setting [1]); 0.13 nM with RL95-2 (Homo sapiens, 72 h, RL95-2, 3-day incubation, read-out: Cell Count GI50).
Consider `CN[C@@H]1C[C@H]2O[C@@](C)([C@@H]1OC)n1c3ccccc3c3c4c(c5c6ccccc6n2c5c31)C(=O)NC4` [Staurosporine, reference compound], for which the “Cell Count Activity Area” value was 2.81 with NCIH446; 4.06 in the experiment on Hs 729; 4.99 in the experiment with A388 (A388, scale 0-10); 5.31 in the experiment on CaOV3; 2.80 with MES-SA; 1.68 in the experiment with NCI-H510A. The “Cell Count Activity Area” value in the experiment on RL95-2 is recorded as 3.87; in the experiment with ST486 it was 4.89; in the experiment with T24 it was 5.96; in the experiment on RKOE6, 3.96; in the experiment on CAMA-1, 2.99; in the experiment with CHP-212, 4.80. For the same compound, the concentration for 50% growth inhibition (GI50) in the experiment with MES-SA (setting [1]) was found to be 13 nM; in the experiment with CAMA-1 (Homo sapiens, CAMA-1, 72 h, read-out: Cell Count GI50), 12 nM. In the experiment on CAMA-1 (Homo sapiens, CAMA-1, 72 h, read-out: Cell Count IC50), the IC50 is 99 nM.
